Data: the supplement of paper PMC10307832

What was measured:
Test in all cases: relative viability (nuclei count vs DMSO), 5 days (fraction); higher = more cells survive
VX-11e = compound: CC1=CN=C(N=C1C2=CNC(=C2)C(=O)N[C@H](CO)C3=CC(=CC=C3)Cl)NC4=C(C=C(C=C4)F)Cl [VX-11e]
Outline: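 Lung cancer cell lines in 1536-well plates were exposed by pinning to five library-drug doses (not always all listed) √10 apart, following an overnight hold at 37 °C. MetaXpress counted Hoechst-stained nuclei from 4× images taken after 5 days without medium change. Viability is the median ratio of treated-well to vehicle-well nuclei across plates. Plates required control CV below 25% and at least one doubling.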

VX-11e + Palbociclib = compound: CC1=CN=C(N=C1C2=CNC(=C2)C(=O)N[C@H](CO)C3=CC(=CC=C3)Cl)NC4=C(C=C(C=C4)F)Cl [VX-11e] + CC(=O)c1c(C)c2cnc(Nc3ccc(N4CCNCC4)cn3)nc2n(C2CCCC2)c1=O [Palbociclib] (partner 0.5 µM)
Outline: (§1)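 Values are medians from duplicate plates. Each reflects relative viability, defined as the nuclei count of treated wells over that of vehicle wells. Lung cancer cell lines in 1536-well plates were pin-tool dosed one day after seeding with one drug alone or with a fixed anchor-drug dose plus five library-drug doses (not always all listed) in √10 steps, then fixed, stained and imaged at 4× after 5 days.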

VX-11e + Foretinib = compound: CC1=CN=C(N=C1C2=CNC(=C2)C(=O)N[C@H](CO)C3=CC(=CC=C3)Cl)NC4=C(C=C(C=C4)F)Cl [VX-11e] + COc1cc2c(Oc3ccc(NC(=O)C4(C(=O)Nc5ccc(F)cc5)CC4)cc3F)ccnc2cc1OCCCN1CCOCC1 [Foretinib] (partner 0.25 µM)
Outline: as §1

VX-11e + OSI-027 = compound: CC1=CN=C(N=C1C2=CNC(=C2)C(=O)N[C@H](CO)C3=CC(=CC=C3)Cl)NC4=C(C=C(C=C4)F)Cl [VX-11e] + COc1cccc2cc(-c3nc([C@H]4CC[C@H](C(=O)O)CC4)n4ncnc(N)c34)[nH]c12 [OSI-027] (partner 0.5 µM)
Outline: as §1

Row | Cell Line | relative viability (VX-11e; 0.04 µM) | relative viability (VX-11e; 0.1265 µM) | relative viability (VX-11e; 0.4 µM) | relative viability (VX-11e; 1.265 µM) | relative viability (VX-11e; 4 µM) | relative viability (VX-11e + Palbociclib; first compound 0.04 µM) | relative viability (VX-11e + Palbociclib; first compound 0.1265 µM) | relative viability (VX-11e + Palbociclib; first compound 0.4 µM) | relative viability (VX-11e + Palbociclib; first compound 1.265 µM) | relative viability (VX-11e + Palbociclib; first compound 4 µM) | relative viability (VX-11e + Foretinib; first compound 0.04 µM) | relative viability (VX-11e + Foretinib; first compound 0.1265 µM) | relative viability (VX-11e + Foretinib; first compound 0.4 µM) | relative viability (VX-11e + Foretinib; first compound 1.265 µM) | relative viability (VX-11e + Foretinib; first compound 4 µM) | relative viability (VX-11e + OSI-027; first compound 0.04 µM) | relative viability (VX-11e + OSI-027; first compound 0.1265 µM) | relative viability (VX-11e + OSI-027; first compound 0.4 µM) | relative viability (VX-11e + OSI-027; first compound 1.265 µM) | relative viability (VX-11e + OSI-027; first compound 4 µM)
1 | NCI-H2405 | 1.01 | 0.934 | 0.901 | 0.943 | 0.462 | 0.579 | 0.506 | 0.385 | 0.513 | 0.328 | 1.04 | 1.01 | 1.05 | 1.08 | 0.455 | 0.587 | 0.599 | 0.375 | 0.768 | 0.37
2 | NCI-H3122 | 1.02 | 0.959 | 0.696 | 0.888 | 0.564 | 0.211 | 0.164 | 0.168 | 0.166 | 0.135 | 0.948 | 0.897 | – | 0.851 | 0.487 | 0.892 | 0.898 | – | 0.513 | 0.147
3 | PC-3 [JPC-3] | 0.997 | 1.02 | 0.998 | 0.981 | 0.832 | 0.565 | 0.558 | 0.519 | 0.624 | 0.546 | 1.06 | 0.972 | 1.05 | 1.08 | 0.769 | 0.705 | 0.714 | 0.685 | 0.866 | 0.544
4 | PC-14 | 1.05 | 0.954 | 0.659 | 0.799 | 0.491 | 0.551 | 0.497 | 0.374 | 0.252 | 0.19 | 1.08 | 1.05 | 0.981 | 1.07 | 0.708 | 0.739 | 0.723 | 0.4 | 0.635 | 0.166
5 | RERF-LC-KJ | 1.05 | 0.895 | 0.99 | 0.989 | 0.789 | 1.11 | 1.02 | 0.981 | 0.952 | 0.908 | 1.01 | 0.886 | 0.901 | 0.856 | 0.813 | 0.442 | 0.474 | 0.528 | 0.504 | 0.327
